Experimental findings from paper PMC8452690, “Structural basis for small molecule targeting of Doublecortin Like Kinase 1 with DCLK1-IN-1” (Communications Biology, 2021) are described below.

In experiment [1] the target is T1, DCLK1-FL1Δ WT (Homo sapiens, UniProt O15075).
T1 sequence (O15075 50-686 isoform O15075-2): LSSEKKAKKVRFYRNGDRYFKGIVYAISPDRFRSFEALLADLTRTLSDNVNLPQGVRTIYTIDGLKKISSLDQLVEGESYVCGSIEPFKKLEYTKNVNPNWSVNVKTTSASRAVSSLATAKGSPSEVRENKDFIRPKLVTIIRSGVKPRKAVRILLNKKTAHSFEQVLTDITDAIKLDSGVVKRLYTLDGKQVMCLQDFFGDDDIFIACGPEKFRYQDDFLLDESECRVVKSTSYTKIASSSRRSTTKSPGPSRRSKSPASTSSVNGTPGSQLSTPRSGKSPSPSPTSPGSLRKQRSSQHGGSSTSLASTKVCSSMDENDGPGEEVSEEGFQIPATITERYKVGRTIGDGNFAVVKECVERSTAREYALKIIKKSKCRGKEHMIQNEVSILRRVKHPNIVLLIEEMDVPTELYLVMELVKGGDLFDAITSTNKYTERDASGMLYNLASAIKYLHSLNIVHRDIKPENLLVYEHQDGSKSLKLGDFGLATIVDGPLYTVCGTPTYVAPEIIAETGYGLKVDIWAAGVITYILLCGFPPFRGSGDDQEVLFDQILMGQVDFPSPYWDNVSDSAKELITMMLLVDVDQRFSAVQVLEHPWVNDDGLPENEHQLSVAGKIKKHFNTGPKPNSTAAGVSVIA
Put plainly: Thermal shift stability assay, DCLK1-FL1Δ WT. The conditions noted are these: phosphorylated WT, 2.5-40 μM. It is filed as binding. On the procedure: DCLK1 proteins were diluted in 150 mM NaCl, 20 mM Tris pH 8.0, 1 mM DTT to […] final concentration and assayed with the appropriate concentration of inhibitor in a total reaction volume of 25 μL. SYPRO Orange (Molecular Probes) was used as a fluorescence probe and detected at 530 nm. The data shown are representative of two independent experiments.

The target of experiment [2] is T1, DCLK1-FL1Δ WT. The experiment can be described thus: SPR binding to immobilised DCLK1-FL1Δ WT (phosphorylated). The conditions noted are these: for Kd: SPR, 18 °C, DCLK1 FL1Δ WT immobilised, mean ± SEM. Here is the method:
SPR studies were carried out on a Biacore 2000 instrument (Cytivia). Proteins were immobilised at 25 °C using standard amine coupling to a CM5 chip (Cytivia) in immobilisation buffer consisting of 10 mM HEPES pH 7.4, 150 mM NaCl, 1 mM TCEP, 0.005% Tween P20, 1% (v/v) DMSO. To the active flow, cells were coupled either DCLK1-FL1Δ D511N or WT to a final density of approximately 7000 RU, followed by surface deactivation with 1 M ethanolamine. For each protein, coupling was performed at a concentration of 2 µM protein in 10 mM sodium acetate buffer pH 4.0, 1% (v/v) DMSO final, in the presence 10 µM of the moderate affinity compound FMF-03-149-01 (IC50 ~400 nM)[28] to help to stabilise the kinase domain during immobilsiation at low pH. A blank immobilisation was performed on the reference flow cell.
Binding experiments were performed at 18 °C in running buffer consisting of 20 mM HEPES, pH 7.4, 150 mM NaCl, 1 mM tris(2-carboxyethyl)phosphine (TCEP), 0.005% (v/v) Tween-P20, and 2% (v/v) DMSO. Compounds (10 mM stocks in 100% DMSO) were diluted in DMSO to 500 µM (DCLK1-NEG) or 25 µM (all other compounds) then in running buffer (without DMSO) to achieve the starting concentration with a final DMSO concentration of 2% (v/v). Samples were then serially titrated in running buffer containing 2% (v/v) DMSO to prepare each final concentration series (seven-point, three-fold serial dilution, 10 µM−13.7 nM for DCLK1-NEG, or 500−0.68 nM for all other compounds). Solutions were injected in multi-cycle format (in duplicate) without regeneration (contact time 80 s, flow rate 75 μL/min, dissociation time 600 s), with an extra wash (50% DMSO) after each injection.
Steady-state/kinetic binding data were fitted using the S200 BIAevaluation software (GE Healthcare). Sensorgrams from reference surfaces and blank injections were subtracted from the raw data (double-referencing), followed by solvent correction. Kinetic rate constants (kon and koff values) were obtained by fitting to 1:1 Langmuir binding model. Reported binding data represent mean ± SEM for three or four independent experiments. The dissociative half-life life (t1/2) for each inhibitor complex with DCLK1 was calculated from the fitted dissociation rate constant (koff), according to the equation 1 (t1/2 = ln(2)/koff.)

Read-outs that look alike come from different tables or passages of the source. Marks after values point to notes of the source that are not given here.

For `COc1cc(N2CCN(C)CC2)ccc1Nc1ncc2c(n1)N(C)c1ccccc1C(=O)N2CC(F)(F)F` [DCLK1-IN-1], the “melting temperature change versus control compound DCLK1-NEG” value on DCLK1-FL1Δ WT [1] is listed as “increased”. For the same compound, the “kon, kinetic fitting” value at DCLK1-FL1Δ WT [2] is on record as 6 ± 2 1/Ms (x 10^5). Besides, the Kd (as a rule, the equilibrium constant for the complex coming apart) on DCLK1-FL1Δ WT [2] (read-out: KD, kinetic fitting (1:1 binding model)) stood at 83 ± 22 nM; at DCLK1-FL1Δ WT [2] (read-out: KD, steady state fitting) it was 145 ± 35 nM. Also, at DCLK1-FL1Δ WT [2] (read-out: koff, kinetic fitting), the koff – broadly, the first-order rate constant of dissociation – stood at 0.04 ± 0.01 s⁻¹.
